Experiments:
in vivo [1] = assay: in vivo; parameters: species or system female CDF1 hybrid mice; conditions: mouse, iv
Method: In addition the administration, to healthy female CDF1 hybrid mice, in a single injection by intravenous route with a perfusor, lasting 4 minutes, of the compounds under test in solution in physiological serum at a rate of 0.1 ml of solution per 10 g weight of the animals has enabled it to be established that the compounds are also well tolerated at a high dosage in these conditions.

melanoma B 16 = assay: Test for melanoma B 16; format: in vivo, BDF1 hybrid mice; conditions: D1-D9; for Number of survivors: day D60; for T/C %: survival time
Outline: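 BDF1 mice inoculated i.p. with 0.5 ml B16 melanoma homogenate (1 g tumour in 10 ml physiological serum); compound given i.p. daily D1–D9, Cis-platine positive control under same conditions. Surviving animals counted on D60; activity as survival increase vs untreated controls (T/C), toxicity if T/C ≤85%.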

leukemia P388 = assay: Test for leukemia P388, IP/IP, D1; format: in vivo, CDF1 hybrid mice; conditions: for Number of survivors: day D30; for T/C %: survival time
Method: The antitumour activity was tested in vivo on various tumours inoculated in various ways according to the following general protocol:
All the male or female mice are inoculated on day D0 with a known quantity of viable tumour cells for ascitic tumours or with a known tumour fragment for solid tumours.
They are then distributed into various groups. Each group, corresponding to the animals treated by the product under test, is made up of 10 mice. The product under test is dissolved in distilled water and it is administered n times (Dx-Dy), n, y, and x varying according to the protocol chosen, at the rate of 0.1 ml of solution per 10 g by weight of mice treated and at specific doses for each protocol.
The "negative control" group, corresponding to the animals which are not treated by the product, contains 2√N animals, N being equal to or greater than the total number of mice treated by the product in the same experiment.
Finally, the tests can also be carried out at the same time as the study of a group called "positive control", of ten animals, which is treated by a molecule, known for its antitumour activity and which can vary according to the protocol chosen, in the same conditions as the groups treated by the product under test.
The antitumour activity is evaluated, in the case of ascitic tumours, by considering the increase in the survival time of the animals treated in comparison to that of the animals in the "negative control" group, according to the formula: [formula]
Also, a product is considered as toxic at the dose studied when this T/C value is equal to or less than 85%. In addition, a product is also considered as toxic at the dose studied when the weight variation, expressed in grams and calculated by the formula: […]
The tests are carried out with CDF1 hybrid mice inoculated by intraperitoneal route with 10^6 leukemia cells from the P 388 line. The compound under test is administered for 5 successive days (D1-D5) by intraperitoneal route. The positive control for the test is 5-fluorouracile which is administered in the same conditions. The number of surviving animals is evaluated on day D30.
(b) Test for Leukemia P388, IP/IP, D1 (GERAN et al. Cancer chemother., 1972, 2, 07-57).
The test is carried out according to the preceding protocol, the compound under test being administered only on day D1.

in vivo [2] = assay: in vivo; parameters: species or system CDF1 hybrid mice; conditions: mouse, ip, 50 mg/kg
From the text: The compounds of the invention benefit from a good tolerance and a weak toxicity.
Thus the administration, to healthy CDF1 hybrid mice, in a single injection by intraperitoneal route, of the compounds under test, has enabled it to be established that the product is perfectly tolerated at a high dosage since the survival rate of the animals of the experiment was 100 out of 100 thirteen days after administration.

leukemia P 388 = assay: Test of leukemia P 388; IP/IP, D1-5; format: in vivo, CDF1 hybrid mice; conditions: D1-D5; for Number of survivors: day D30; for T/C %: survival time
Outline: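 CDF1 hybrid mice received 10^6 P 388 cells intraperitoneally, then compound in distilled water by intraperitoneal route daily D1-D5, 10 mice per group, 5-fluorouracil as positive control. Activity judged as T/C survival time versus untreated controls, survivors counted at D30; T/C ≤85% or day 5 minus day 1 weight change ≤ −4 g counted as toxic.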

In the case of CCN(CC)CCCNc1ncc(C)c2[nH]c3ccc(O)cc3c12 [Derivative No. 7, 1-(diethylaminopropylamino)-8-hydroxy-4-methyl-5H-pyrido[4,3-b]indole], the survival at 192 h (in vivo [1]; 25 mg/kg) is reported as 100%, the survival at 192 h (in vivo [1]; 30 mg/kg) is reported as 100% and the “Median day of survival” value (melanoma B 16; 2.5 mg/kg IP) is reported as 34 days. The “Variation by weight (g)” value (melanoma B 16; 2.5 mg/kg IP) was “+3.6 g”, the Number of survivors (melanoma B 16; 2.5 mg/kg IP) was 0/10 and the T/C % (melanoma B 16; 2.5 mg/kg IP) was 124%. For the same compound, the “Median day of survival” value (melanoma B 16; 5 mg/kg IP) was 48 days, the “Variation by weight” value (melanoma B 16; 5 mg/kg IP) was -0.1 g and the Number of survivors (melanoma B 16; 5 mg/kg IP) was 0/10. For the same compound, the T/C % (melanoma B 16; 5 mg/kg IP) was 174%, the “Median day of survival” value (melanoma B 16; 10 mg/kg IP) was 56.25 days and the “Variation by weight (g)” value (melanoma B 16; 10 mg/kg IP) was “+1.6 g”. The Number of survivors (melanoma B 16; 10 mg/kg IP) was 4/10, the T/C % (melanoma B 16; 10 mg/kg IP) was 205% and the “Median day of survival” value (melanoma B 16; 20 mg/kg IP) was 58 days. The “Variation by weight” value (melanoma B 16; 20 mg/kg IP) was -0.8 g, the Number of survivors (melanoma B 16; 20 mg/kg IP) was 5/10 and the T/C % (melanoma B 16; 20 mg/kg IP) was 211%. The “Median day of survival” value (melanoma B 16; 30 mg/kg IP) was 9.0 days, the “Variation by weight” value (melanoma B 16; 30 mg/kg IP) was -1.0 g and the Number of survivors (melanoma B 16; 30 mg/kg IP) was 0/10. For the same compound, the T/C % (melanoma B 16; 30 mg/kg IP) was 33%, the “Median day of survival” value (leukemia P388; 10 mg/kg IP) was 15.1 days and the “Variation by weight (g)” value (leukemia P388; 10 mg/kg IP) was “+1.2 g”. For the same compound, the Number of survivors (leukemia P388; 10 mg/kg IP) was 0/10, the T/C % (leukemia P388; 10 mg/kg IP) was 129% and the “Median day of survival” value (leukemia P388; 20 mg/kg IP) was 16.25 days. The “Variation by weight (g)” value (leukemia P388; 20 mg/kg IP) was “+0.2 g”, the Number of survivors (leukemia P388; 20 mg/kg IP) was 0/10 and the T/C % (leukemia P388; 20 mg/kg IP) was 139%. The “Median day of survival” value (leukemia P388; 40 mg/kg IP) was 15.9 days, the “Variation by weight” value (leukemia P388; 40 mg/kg IP) was -0.2 g and the Number of survivors (leukemia P388; 40 mg/kg IP) was 0/10. For the same compound, the T/C % (leukemia P388; 40 mg/kg IP) was 136%, the “Median day of survival” value (leukemia P388; 80 mg/kg IP) was 2.3 days and the “Variation by weight” value (leukemia P388; 80 mg/kg IP) was -1.7 g. The Number of survivors (leukemia P388; 80 mg/kg IP) was 0/10, the T/C % (leukemia P388; 80 mg/kg IP) was 20% and the survival at 312 h (in vivo [2]) was 100%. The “Median day of survival” value (leukemia P 388; 0.625 mg/kg IP) was 14.3 days, the “Variation by weight (g)” value (leukemia P 388; 0.625 mg/kg IP) was “+0.3 g” and the Number of survivors (leukemia P 388; 0.625 mg/kg IP) was 0/10. For the same compound, the T/C % (leukemia P 388; 0.625 mg/kg IP) was 127%, the “Median day of survival” value (leukemia P 388; 1.25 mg/kg IP) was 17.25 days and the “Variation by weight (g)” value (leukemia P 388; 1.25 mg/kg IP) was “+0.3 g”. For the same compound, the Number of survivors (leukemia P 388; 1.25 mg/kg IP) was 0/10, the T/C % (leukemia P 388; 1.25 mg/kg IP) was 153% and the “Median day of survival” value (leukemia P 388; 2.5 mg/kg IP) was 18.25 days. For the same compound, the “Variation by weight (g)” value (leukemia P 388; 2.5 mg/kg IP) was “+0.1 g”, the Number of survivors (leukemia P 388; 2.5 mg/kg IP) was 0/10 and the T/C % (leukemia P 388; 2.5 mg/kg IP) was 162%. For the same compound, the “Median day of survival” value (leukemia P 388; 5 mg/kg IP) was 19.25 days, the “Variation by weight (g)” value (leukemia P 388; 5 mg/kg IP) was “+0.3 g” and the Number of survivors (leukemia P 388; 5 mg/kg IP) was 0/10. For the same compound, the T/C % (leukemia P 388; 5 mg/kg IP) was 170%, the “Median day of survival” value (leukemia P 388; 10 mg/kg IP) was 20.9 days and the “Variation by weight” value (leukemia P 388; 10 mg/kg IP) was -0.2 g. The Number of survivors (leukemia P 388; 10 mg/kg IP) was 0/10, the T/C % (leukemia P 388; 10 mg/kg IP) was 185% and the “Median day of survival” value (leukemia P 388; 15 mg/kg IP) was 23.55 days. For the same compound, the “Variation by weight (g)” value (leukemia P 388; 15 mg/kg IP) was “+1.6 g”, the Number of survivors (leukemia P 388; 15 mg/kg IP) was 3/10 and the T/C % (leukemia P 388; 15 mg/kg IP) was 208%. For the same compound, the “Median day of survival” value (leukemia P 388; 20 mg/kg IP) was 27.0 days, the “Variation by weight” value (leukemia P 388; 20 mg/kg IP) was -1.1 g and the Number of survivors (leukemia P 388; 20 mg/kg IP) was 1/10. For the same compound, the T/C % (leukemia P 388; 20 mg/kg IP) was 238%, the “Median day of survival” value (leukemia P 388; 30 mg/kg IP) was 9.25 days and the “Variation by weight” value (leukemia P 388; 30 mg/kg IP) was 0.0 g. The Number of survivors (leukemia P 388; 30 mg/kg IP) was 0/10 and the T/C % (leukemia P 388; 30 mg/kg IP) was 81%.
